Like-named read-outs stand apart in the source and are kept apart here.
How the values were obtained:
in vitro = type: cell-based; settings: mouse
Protocol: (§1) The viability of HEK-Blue^TM hTLR4, […], and THP-1 cells was evaluated using the Dojindo Cell Counting Kit-8 (CCK-8) according to the manufacturer’s instructions. The viability of HEK-Blue^TM hTLR4 and THP-1 cells was assessed under identical conditions to the corresponding assay treatments. HEK-Blue^TM hTLR4 cells (2 × 10^4 cells/well) were seeded in 96-well plates and serum-starved for 24 h at 37 °C in a 5% CO2 atmosphere. After incubation, the culture medium was aspirated, and the cells were washed with saline. High-glucose D-MEM supplemented with 0.1% FBS and 1% penicillin–streptomycin was added and pretreated with or without the 17 limonoids at a concentration of 20 µM for 1 h, followed by LPS addition at a concentration of 10 ng/mL. After 18 h of incubation, a 10% (v/v) CCK-8 solution was added to each well and incubated at 37 °C for 1 h, and cell viability was calculated.

[1] = Cell viability by CCK-8, THP-1 cells; type: cell-based; settings: human, PMA-differentiated THP-1 cells; for CC50 at 18 h: concentration causing 50% cytotoxicity against THP-1 cells
Protocol: as §1
The THP-1 cells at 5 × 10^4 cells/well were differentiated for 24 h in the presence of PMA (0.5 μM solution in medium). After 24 h of incubation, the culture medium was removed from the 96-well plate and the cells were washed with PBS. Fresh RPMI-1640 medium supplemented with 0.1% FBS and 1% penicillin–streptomycin was added to each well and incubated at 37 °C for overnight. The cells were pretreated with 17 limonoids at the corresponding concentration for 1 h followed by the addition of LPS (10 ng/mL) and incubated at 37 °C for 18 h. Furthermore, CCK-8 solution was added to each well with a final concentration was 10% (v/v) and incubated at 37 °C. After 1 h, the absorbance of each well was measured at […] by using a microplate reader (BioTek Cytation 5 Cell Imaging Multimode Reader). Cell viability was calculated using the following formula: % Cell viability=(Absorbance of sample−Absorbance of Background)/(Absorbance of control−Absorbance of Background)×100 where the absorbance of the sample is the absorbance of cells treated by the compound with or without LPS, the absorbance of the control is the absorbance of LPS (−)-treated cells, and the background absorbance is the absorbance of a well containing only the medium. The results were expressed as 100% cell viability.

[2] = Cell viability by CCK-8, HEK-Blue hTLR4 cells; type: cell-based; settings: human
Protocol: as §1

TNF-α = assay: ELISA of TNF-α production in LPS-stimulated THP-1 cells; type: cell-based, human; settings: for IC50: Homo sapiens, THP-1, 18 h, read-out: TNF-α IC50
phosphorylated-p38 MAPK = assay: Western blotting of phosphorylated-p38 MAPK in LPS-stimulated THP-1 cells; type: cell-based, human; settings: 10 µM, LPS 10 ng/mL, 18 h, compared to LPS (+) group
Protocol: THP-1 cells were seeded at a density of 1 × 10^6 cells/well in 24-well plates. The cells were then pretreated with a concentration of 10 µM of compounds 3, 5, 9, or 15 for 1 h. Subsequently, LPS (10 ng/mL) was added to the cells, which were incubated for 18 h. The protein concentrations were determined using a bicinchoninic acid (BCA) assay kit.
For Western blot analysis, proteins were separated by SDS-PAGE and transferred onto a polyvinylidene fluoride (PVDF) membrane. The membranes were blocked with 2.5% BSA in Tris-buffered saline-Tween (TBST) for 1 h at room temperature. After three washes with TBST, the membranes were incubated with a diluted primary antibody solution (anti-phosphorylated-p38 MAPK or anti-p38 MAPK) at a 1:1000 dilution for 1 h at room temperature. After three washes with TBS-T, the membranes were incubated with a secondary antibody conjugated to horseradish peroxidase (HRP; 1:4000 dilution) for 30 min at room temperature and subsequently detected by chemiluminescence. Finally, the bands were visualized and quantified using an ImageQuant 800 GxP system (Cytiva, MA, USA). The results were expressed as ratios relative to the reference protein β-actin.

[3] = tested on: TNF-α, IL-6, IL-1β, and MCP-1; assay: ELISA of pro-inflammatory markers overall (TNF-α, IL-6, IL-1β, MCP-1) in LPS-stimulated THP-1 cells; type: cell-based; settings: Homo sapiens, read-out: Overall IC50 values for the evaluated pro-inflammatory markers
Protocol: (§2) The logarithmic growth phase of THP-1 cells was achieved by seeding in 96-well plates at a density of 5 × 10^4 cells/well and differentiated for 24 h in the presence of PMA (0.5 μM solution in medium). After 24 h of incubation, the culture medium was removed from the 96-well plate and the cells were washed with PBS. Fresh RPMI-1640 medium supplemented with 0.1% FBS and 1% Penicillin–Streptomycin was added to each well and incubated at 37 °C overnight. The cells were pretreated with 17 limonoids at the corresponding concentration for 1 h, followed by the addition of LPS (10 ng/mL) and then incubation at 37 °C for 18 h. Finally, 50 μL of each culture supernatant solution was taken to determine the concentrations of IL-6, MCP-1, and IL-1β using the corresponding commercially available human ELISA kits following the manufacturer’s instructions. The analyte concentration in the supernatant was measured in pg/mL, and the inhibition level was expressed as a fold change compared to the LPS (−) control group. To determine the IC50 value, the dose-response data were normalized to the LPS-stimulated-only group, and the percentage of inhibition was calculated using the following formula: % Inhibition=(Absorbance of LPS+ control−Absorbance of compound treatment with LPS)/(Absorbance of LPS+ control−Absorbance of LPS− control)×100
(§3) Furthermore, the % inhibition data were interpolated into linear equations to determine the IC50 values.

MCP-1 = assay: ELISA of MCP-1 production in LPS-stimulated THP-1 cells; type: cell-based, human; settings: Homo sapiens; LPS-stimulated (10 ng/mL) THP-1 cells, 1, 5, 10, 20 µM, 18 h
Protocol: as §2, with “Fresh RPMI-1640 medium supplemented with 0.1% FBS and 1% Penicillin–Streptomycin was added to each well and incubated at 37 °C overnight.” left out
as §3

IL-6 = assay: ELISA of IL-6 production in LPS-stimulated THP-1 cells; type: cell-based, human; settings: Homo sapiens, THP-1, 18 h, LPS-stimulated (10 ng/mL) THP-1 cells, 1, 5, 10, 20 µM, 18 h
Protocol: as §2, with “Fresh RPMI-1640 medium supplemented with 0.1% FBS and 1% Penicillin–Streptomycin was added to each well and incubated at 37 °C overnight.” left out
as §3

[4] = LPS 10 ng/mL, read-out: Viability Cell (%) THP-1 LPS-Induced (10 ng/mL)
[5] = without LPS, read-out: Viability Cell (%) THP-1 Without LPS
[6] = Viability Cell (%) HEK-Blue hTLR4 LPS-Induced (10 ng/mL)
[7] = Viability Cell (%) HEK-Blue hTLR4 Without LPS
[8] = RAW264.7 macrophages, 5 µM, read-out: Viability cell (%) RAW 264.7 5 µM
[9] = RAW264.7 macrophages, 10 µM, read-out: Viability cell (%) RAW 264.7 10 µM
[10] = RAW264.7 macrophages, 20 µM, read-out: Viability cell (%) RAW 264.7 20 µM

Row | SMILES | viability at 5 µM (in vitro) | viability at 10 µM (in vitro) | viability at 20 µM (in vitro) | viability at 18 h, 10 µM [1, 4] | viability at 18 h, 10 µM [1, 5] | viability at 18 h, 20 µM [2, 6] | viability at 18 h, 20 µM [2, 7] | also measured
1 | CC1(C)C(=O)C=C[C@]2(C)[C@H]3CC[C@]4(C)C(C(=O)C[C@H]4c4ccoc4)[C@]3(C)[C@H](O)C[C@@H]12 (stereo partly drawn) [Compound 1, 7α-hydroxyneotrichilenone] | > 99.9% | > 99.9% | > 99.9% | > 99.9% | > 99.9% | > 99.9% | > 99.9% | –
2 | CC(=O)O[C@@H]1C[C@H]2C(C)(C)C(=O)C=C[C@]2(C)[C@H]2CC[C@]3(C)C(C(=O)C[C@H]3c3ccoc3)[C@@]21C (stereo partly drawn) [Compound 2, 7α-acetylneotrichilenone] | 96.2 ± 3.67% | > 99.9% | > 99.9% | > 99.9% | > 99.9% | 75.5 ± 13.8% | 61.2 ± 1.22% | –
3 | CC(=O)O[C@H]1[C@@H](OC(C)=O)[C@@]2(C)C3=CC[C@@H](C4=CCOC4=O)[C@]3(C)CC[C@@H]2[C@@]2(C)C=CC(=O)C(C)(C)[C@H]12 [Compound 6, lasiocarpine A] | – | – | – | > 99.9% | 90.7 ± 3.82% | – | – | viability at 5 µM (in vitro; 5 µM, read-out: Viability cell (%) RAW 264.7 5 µM): 103 ± 6.05%; viability at 10 µM (in vitro; 10 µM, read-out: Viability cell (%) RAW 264.7 10 µM): > 99.9%; viability at 20 µM (in vitro; 20 µM, read-out: Viability cell (%) RAW 264.7 20 µM): 96.7 ± 2.14%; viability at 18 h, 20 µM ([2]; 20 µM, 18 h, LPS 10 ng/mL, read-out: Viability Cell (%) HEK-Blue hTLR4 LPS-Induced (10 ng/mL)): 58.3 ± 1.89%; viability at 18 h, 20 µM ([2]; 20 µM, 18 h, without LPS, read-out: Viability Cell (%) HEK-Blue hTLR4 Without LPS): 77.1 ± 2.13%
4 | CC(=O)O[C@H]1[C@@H](OC(C)=O)[C@@]2(C)C3C(=O)C[C@@H](c4ccoc4)[C@]3(C)CC[C@@H]2[C@@]2(C)C=CC(=O)C(C)(C)[C@H]12 (some centres unmarked) [Compound 7, toonaciliatone F] | > 99.9% | > 99.9% | 95.9 ± 2.19% | > 99.9% | > 99.9% | 87.3 ± 4% | 92.9 ± 2.11% | –
5 | CC(=O)O[C@H]1[C@@H](OC(C)=O)[C@]2(C)[C@H](CCC3=C(c4ccoc4)C[C@@H](O)[C@]32C)[C@@]2(C)C=CC(=O)C(C)(C)[C@H]12 [Compound 8, toonaciliatone C] | – | – | – | 94 ± 9.84% | > 99.9% | – | – | viability at 5 µM (in vitro; [8]): 89.5 ± 9.38%; viability at 10 µM (in vitro; [9]): 94.75 ± 0.32%; viability at 20 µM (in vitro; [10]): 87.5 ± 3.33%; viability at 18 h, 20 µM ([2]; HEK-Blue hTLR4 cells, 20 µM, 18 h, LPS 10 ng/mL, read-out: Viability Cell (%) HEK-Blue hTLR4 LPS-Induced (10 ng/mL)): 88 ± 6.37%; viability at 18 h, 20 µM ([2]; HEK-Blue hTLR4 cells, 20 µM, 18 h, without LPS, read-out: Viability Cell (%) HEK-Blue hTLR4 Without LPS): > 99.9%
6 | CC(=O)O[C@H]1[C@@H](OC(C)=O)[C@]2(C)[C@H](CC[C@@]3(C)[C@H](c4ccoc4)C(=O)[C@H]4O[C@@]423)[C@@]2(C)C=CC(=O)C(C)(C)[C@H]12 [Compound 10, 6α-acetylepoxyazadirone] | 93.2 ± 4.2% | 82.1 ± 1.31% | 86.1 ± 4.07% | > 99.9% | > 99.9% | > 99.9% | > 99.9% | –
7 | C[C@]12C3=CC[C@@H](c4ccoc4)[C@]3(C)CC[C@@H]1[C@@]1(C)C(=O)C=C[C@@]3(C)CO[C@@H]([C@H]2O)[C@H]13 [Compound 12, ceramicine B] | > 99.9% | > 99.9% | 89.4 ± 6.9% | 96.7 ± 4.3% | > 99.9% | > 99.9% | > 99.9% | CC50 at 18 h [1]: 36.9 µM; IC50 (TNF-α): 13.9 µM; TNF-α SI (selectivity index, CC50/IC50) (TNF-α; THP-1 CC50 / TNF-α IC50): 2.66; Effect on p-p38 MAPK levels (phosphorylated-p38 MAPK): significantly suppressed
8 | C[C@]12C3=CC[C@@H](C4=CC(O)OC4=O)[C@]3(C)CC[C@@H]1[C@@]1(C)C(=O)C=C[C@@]3(C)CO[C@@H]([C@H]2O)[C@H]13 (some centres unmarked) [Compound 14, pentandricine] | > 99.9% | 88.2 ± 3.86% | 91.3 ± 4.19% | 91.1 ± 9.03% | > 99.9% | > 99.9% | > 99.9% | IC50 [3]: < 20 µM
9 | C[C@@H]1C[C@H]2[C@@H]3CCC4=CC(=O)C=C[C@]4(C)[C@@]3(F)[C@@H](O)C[C@]2(C)[C@@]1(O)C(=O)CO [Dex, dexamethasone, reference compound] | – | – | – | – | – | – | – | CC50 at 18 h [1]: 28.2 µM; IC50 (MCP-1): 0.5 µM; IC50 (IL-6): 0.72 µM; IC50 (TNF-α; LPS-stimulated (10 ng/mL) THP-1 cells, 1, 5, 10, 20 µM, 18 h): 2.17 µM
10 | COc1cc([C@@H]2c3cc4c(cc3[C@@H](O[C@@H]3O[C@@H]5CO[C@@H](C)O[C@H]5[C@H](O)[C@H]3O)[C@H]3COC(=O)[C@H]23)OCO4)cc(OC)c1O [Etoposide, reference compound] | – | – | – | – | – | – | – | viability at 5 µM (in vitro; [8]): 67.5 ± 2.36%; viability at 10 µM (in vitro; [9]): 54.8 ± 2.58%; viability at 20 µM (in vitro; [10]): 38.9 ± 3.19%
